According to US7355047B2, “Substituted quinolone carboxylic acids, their derivatives, site of action, and uses thereof” (The Regents of the University of California, priority 2002, dated 2008):
pIC50: −log10 of the molar value.

Assays:
[1] = test system: GABAA receptor complex (GRC); experiment: [35S]TBPS binding dissociation, mouse forebrain; details: 2 nM [35S]TBPS, initiated by 10 μM compound 3, 10 μM mefenamic acid, FIG. 13
[2] = test system: GABAA receptor complex (GRC); experiment: [35S]TBPS binding, rat cerebellum; details: 2 nM [35S]TBPS, 30 μM furosemide, FIG. 14
[3] = test system: GABAA receptor complex (GRC); experiment: [35S]TBPS binding assay, rat cortex; details: 2 nM [35S]TBPS, rat cortex; for pIC50: read-out: IC50 (inhibition of [35S]TBPS binding); for % Inhibition of 2 nM TBPS in Rat Cortex at 10 μM: 10 μM compound, plain numbers = inhibition

| SMILES | pIC50 [3] | % Inhibition of 2 nM TBPS in Rat Cortex at 10 μM [3] [%] | other results |
| --- | --- | --- | --- |
| Cc1cccc(Nc2ccccc2C(=O)O)c1C [mefenamic acid, reference compound] |  |  | dissociation of [35S]TBPS binding in absence or presence of mefenamic acid [1]: accelerate the dissociation of [^35S]TBPS binding |
| NS(=O)(=O)c1cc(C(=O)O)c(NCc2ccco2)cc1Cl [furosemide, reference compound] |  |  | effect on [35S]TBPS binding in absence or presence of furosemide [2]: inability of furosemide to produce a dose-dependent rightward parallel shift |
| CCCC(C)C1(CC)C(=O)NC(=O)NC1=O (stereo not drawn) [pentobarbital, reference compound] |  |  | dissociation of [35S]TBPS binding in absence or presence of pentobarbital ([3]; initiated by 10 μM compound 3, 30 μM pentobarbital, FIG. 10): accelerate the dissociation of [^35S]TBPS binding |
| CCn1cc(C(=O)O)c(=O)c2cc(NC(C)CCc3ccccc3)c(Cl)cc21 (stereo not drawn) | 5.70 | 84 |  |
| CCn1cc(C(=O)O)c(=O)c2cc(F)c(N3CCNCC3)cc21 [norfloxacin, reference compound] |  |  | effect on [35S]TBPS binding in absence or presence of norfloxacin ([3]; 30 μM and 100 μM norfloxacin, FIG. 9): inability of norfloxacin to produce a dose-dependent rightward parallel shift |
| CN1C(=O)CN=C(c2ccc(Cl)cc2)c2cc(Cl)ccc21 [4′-chlorodiazepam, reference compound] |  |  | effect on [35S]TBPS binding in absence or presence of Ro5-4864 (4′-chlorodiazepam) ([3]; 0.3, 1 and 30 μM Ro5-4864, FIG. 11): inability of 4′-chlorodiazepam to produce a dose-dependent rightward parallel shift |
| CCCNC(=O)c1cn(CC)c2cc(Cl)c(NC3CCCc4ccccc43)cc2c1=O (stereo not drawn) | 5.82 | 86 |  |
| CCn1cc(C(=O)O)c(=O)c2cc(NCC(C)c3ccccc3)c(Cl)cc21 (stereo not drawn) | 5.40 | 65 |  |
| C[C@H](O)[C@H]1CC[C@H]2[C@@H]3CC[C@H]4C[C@H](O)CC[C@]4(C)[C@H]3CC[C@]12C [5α,20α-diol, 5α-pregnan-3α,20α-diol, reference compound] |  |  | interaction with 5α,20α-diol inhibition of [35S]TBPS binding (neurosteroid site) ([3]; 10 μM compound 3 or 100 nM 3α,5α-P, FIG. 8): antagonize the effect of 3α,5α-P |
| CCOC(=O)c1cn(CC)c2cc(Cl)c(NC3CCCc4ccccc43)cc2c1=O (stereo not drawn) | 6.06 |  |  |
| CCn1cc(C(=O)O)c(=O)c2cc(NC3CCCc4ccccc43)c(Cl)cc21 (stereo not drawn) [drawing 15] | 5.57 | 70 |  |
